Data reported in the SangsterLogP compilation.

experiment: method code SF-AS, from DOI: 10.1016/s0008-6215(00)84247-0, PMID: 18283; details: pH 7.5

| logD | SMILES |
| --- | --- |
| -0.56 | OC[C@H]1O[C@@H](Sc2ccccc2)[C@H](O)[C@@H](O)[C@H]1O |
| -0.47 | OC[C@H]1O[C@@H](SCc2ccccc2)[C@H](O)[C@@H](O)[C@H]1O |
| -0.1 | OC[C@H]1O[C@@H](SCCc2ccccc2)[C@H](O)[C@@H](O)C1O (stereo in doubt) |
| 0.38 | OCC1OC(SCCCc2ccccc2)C(O)C(O)C1O (stereo unspecified) |

experiment: method code SF-CR, from DOI: 10.1016/s0008-6215(00)84247-0, PMID: 18283; details: pH 7.5

| SMILES | logD |
| --- | --- |
| CCCCCS[C@@H]1O[C@H](CO)[C@H](O)[C@H](O)[C@H]1O | 0.39 |
| CCCS[C@@H]1O[C@H](CO)[C@H](O)[C@H](O)[C@H]1O | -1.18 |
| CCCCCCCCS[C@@H]1O[C@H](CO)[C@H](O)[C@H](O)[C@H]1O | 2.13 |
| CCCCCCCCO[C@@H]1O[C@H](CO)[C@H](O)[C@H](O)[C@H]1O | 1.46 |
| CCCCCCCO[C@@H]1O[C@H](CO)[C@H](O)[C@H](O)[C@H]1O | 0.73 |
| CCS[C@@H]1O[C@H](CO)[C@H](O)[C@H](O)[C@H]1O | -1.51 |
| CCCCCOC1C(O)C(O)OC(CO)C1O (stereo unspecified) | -0.8 |
| CCCCCO[C@@H]1O[C@H](CO)[C@H](O)[C@H](O)[C@H]1O | -0.42 |
| CCCCCCS[C@@H]1O[C@H](CO)[C@H](O)[C@H](O)[C@H]1O | 0.86 |
| CCCCS[C@@H]1O[C@H](CO)[C@H](O)[C@H](O)[C@H]1O | -0.54 |
| CCOC1O[C@H](CO)[C@H](O)[C@H](O)[C@H]1O (stereo in doubt) | -2.28 |
| CCCCCOC1C(O)C(S)OC(CO)C1O (stereo unspecified) | -0.18 |

Results, then the compound that gave them:

| logD | SMILES |
| --- | --- |
| -1.04 | CCCCO[C@@H]1O[C@H](CO)[C@H](O)[C@H](O)[C@H]1O |
| 1.5 | CCCCCCCS[C@@H]1O[C@H](CO)[C@H](O)[C@H](O)[C@H]1O |
| -1.26 | CC(C)S[C@@H]1O[C@H](CO)[C@H](O)[C@H](O)[C@H]1O |
| 0.16 | CCCCCCO[C@@H]1O[C@H](CO)[C@H](O)[C@H](O)[C@H]1O |
| -1.66 | CCCO[C@@H]1O[C@H](CO)[C@H](O)[C@H](O)[C@H]1O |
